Like-named read-outs stand apart in the source and are kept apart here.
Experiments:
[1] = 39-week oral (gavage) toxicity/toxicokinetic study with 13-week treatment-free recovery period in cynomolgus monkeys; format: in vivo, cynomolgus monkeys (Macaca fascicularis); settings: for AUC(0–24) / Cmax / AUC(0-t): mean; for Rac AUC(0–24 h) (accumulation ratio) / Rac C max (accumulation ratio): Week 39 / Day 1; for concentration at 13 weeks after last dose / half-life / t max / Cmax / AUC(0-t): cynomolgus monkey; for concentration at 13 weeks after last dose: oral, after 13‐week treatment‐free period, all four recovery monkeys; for half-life / t max / Cmax / AUC(0-t): plasma, po; for AUC(0-t): read-out: AUC(0–24) (converted)
Description: CETP is present and active in non‐human primates, rabbits, and hamsters, but is absent in most other animal species, including mice, rats, and dogs.[2], [31], [32] A non‐human primate study was conducted using cynomolgus monkeys (Macaca fascicularis) to evaluate the toxicity of obicetrapib (TA‐8995), following twice daily (b.i.d.), six h apart, oral (gavage) administration to the monkey for 39 weeks (Clinical Study Report [CSR], NewAmsterdam Pharma). The monkey was selected as the species for this study because the CETP structure in monkeys is very similar to the structure of human CETP.[33] The cynomolgus monkeys were obtained from Noveprim Ltd, Mauritius. The monkeys were approximately 26–30 months old when obtained for the study and 28–32 months old at the start of dosing. On arrival at the study site, the weight range of the monkeys was 2.4–3.3 kg. Individual body weights were recorded once weekly (including Day 1 before the start of dosing) from time of allocation and on the day of necropsy. At the start of dosing, the weight range of the monkeys was 2.4–3.3 kg and 2.5–3.9 kg for the females and males, respectively. The weight range of the monkeys at the end of the dosing period (Week 39) was 3.0–4.8 kg and 3.0–5.2 kg for females and males, respectively.
The weight range of the recovery monkeys (n = 8) at Week 14 of the recovery period, prior to necropsy, was 3.5–5.2 kg and 3.7–4.9 kg for the females and males, respectively.
The animals were housed in pens that conform to the “Code of practice for the housing and care of animals used in scientific procedures” in rooms exclusive to the study. The rooms were air‐conditioned to provide 15–20 air changes/hour, and the temperature and relative humidity ranges were maintained at 21–25°C and 40–70%, respectively. Fluorescent lighting was controlled automatically to give a cycle of 12 h light and 12 h dark, with the exception of when experimental procedures dictated otherwise. A number of strategies were used for environmental enrichment for the monkeys, such as the provision of toys (e.g., balls, inert nylon chews), swings, and foraging materials. The monkeys were offered ad libitum water, 100 g of SQC Mazuri Primate Diet (Special Diets Services Ltd., Witham, UK), and a 25 g Bonio biscuit (Spillers) each day. When available, the diet was supplemented twice daily with fresh fruit, fresh vegetables, forage mix, peanuts, raisins, or sunflower seeds. The study was conducted in accordance with the requirements of the Animals (Scientific Procedures) Act 1986 and a local ethical review was maintained (CSR, NewAmsterdam Pharma).
The monkeys (n = 40; 20 of each sex) were allocated into four groups (based on existing social groupings) to receive treatment for 39 weeks: a control group (no treatment), a low‐dose group (10 mg/kg/day [5 mg/kg/b.i.d.] of obicetrapib), an intermediate‐dose group (20 mg/kg/day [10 mg/kg/b.i.d.] of obicetrapib), and a high‐dose group (50 mg/kg/day [25 mg/kg/b.i.d.] of obicetrapib). Four monkeys (two of each sex) from the 50 mg/kg/day dose group and four (two of each sex) from the control group were followed for an extended treatment‐free period of 13 weeks (recovery period). Obicetrapib was dosed as a suspension in 0.5% sodium carboxylmethyl cellulose solution and 0.1% polyoxyethylene hydrogenated castor oil. Toxicokinetic parameters were examined after 39 weeks of dosing. Blood samples for toxicokinetic evaluation were taken from all monkeys in the study on Day 1 and Day 273 (Week 39) pre‐dose and at 0.5, 1, 2, 3, 4, 6, 7.5, 9, 10, 12, and 24 h after dosing. Blood samples for toxicokinetic assessments were taken from the recovery animals on multiple days during the treatment‐free period at the same time intervals as the 24‐hour samples in Week 39. Delayed onset toxicity and/or reversibility of toxicity were examined during the 13‐week treatment‐free period. […]

[2] = pH 7.4; cited from earlier work
[3] = female, 10 mg/kg/day, Day 1, 10 mg/kg/d, females
[4] = female, 20 mg/kg/day, Day 1, 20 mg/kg/d, females
[5] = female, 50 mg/kg/day, Day 1, 50 mg/kg/d, females
[6] = male, 10 mg/kg/day, Day 1, 10 mg/kg/d, males
[7] = male, 20 mg/kg/day, Day 1, 20 mg/kg/d, males
[8] = male, 50 mg/kg/day, Day 1, 50 mg/kg/d, males

CCOC(=O)N1c2ccc(C(F)(F)F)cc2C(N(Cc2cc(C(F)(F)F)cc(C(F)(F)F)c2)c2ncc(OCCCC(=O)O)cn2)CC1CC (centres unmarked) [Obicetrapib]
AUC(0–24) ([1]; Day 273 (Week 39), 10 mg/kg/d, females): 41 300 ngh/mL
AUC(0–24) ([1]; Day 273 (Week 39), 10 mg/kg/d, males): 40 300 ngh/mL
AUC(0–24) ([1]; Day 273 (Week 39), 20 mg/kg/d, females): 54 000 ngh/mL
AUC(0–24) ([1]; Day 273 (Week 39), 20 mg/kg/d, males): 65 200 ngh/mL
AUC(0–24) ([1]; Day 273 (Week 39), 50 mg/kg/d, females): 103 000 ngh/mL
AUC(0–24) ([1]; Day 273 (Week 39), 50 mg/kg/d, males): 111 000 ngh/mL
Rac AUC(0–24 h) (accumulation ratio) ([1]; 10 mg/kg/d, females, mean (SD)): 1.4 (0.2)
Rac C max (accumulation ratio) ([1]; 10 mg/kg/d, females, mean (SD)): 1.0 (0.2)
Rac AUC(0–24 h) (accumulation ratio) ([1]; 10 mg/kg/d, males, mean (SD)): 1.4 (0.3)
Rac C max (accumulation ratio) ([1]; 10 mg/kg/d, males, mean (SD)): 1.4 (0.1)
Rac AUC(0–24 h) (accumulation ratio) ([1]; 20 mg/kg/d, females, mean (SD)): 1.1 (0.2)
Rac C max (accumulation ratio) ([1]; 20 mg/kg/d, females, mean (SD)): 1.1 (0.2)
Rac AUC(0–24 h) (accumulation ratio) ([1]; 20 mg/kg/d, males, mean (SD)): 1.4 (0.2)
Rac C max (accumulation ratio) ([1]; 20 mg/kg/d, males, mean (SD)): 1.4 (0.3)
Rac AUC(0–24 h) (accumulation ratio) ([1]; 50 mg/kg/d, females, mean (SD)): 0.9 (0.2)
Rac C max (accumulation ratio) ([1]; 50 mg/kg/d, females, mean (SD)): 0.8 (0.1)
Rac AUC(0–24 h) (accumulation ratio) ([1]; 50 mg/kg/d, males, mean (SD)): 1.0 (0.1)
Rac C max (accumulation ratio) ([1]; 50 mg/kg/d, males, mean (SD)): 1.0 (0.2)
concentration at 13 weeks after last dose ([1]; both sexes, fat homogenate, 50 mg/kg/day, read-out: obicetrapib in fat homogenate (below LLOQ)): < 0.5 ng/mL
concentration at 13 weeks after last dose ([1]; both sexes, 50 mg/kg/day, perirenal white fat, read-out: obicetrapib in adipose tissue (below LLOQ), per g of fat): < 10 ng/g
half-life ([1]; both sexes, Day 1, read-out: Apparent t 1/2 for the individual monkeys): 4.8 to 10.5 h
half-life ([1]; both sexes, Day 1, read-out: mean t 1/2, range over groups): 5.8 to 7.2 h
half-life ([1]; both sexes, Day 273, read-out: mean t 1/2, range over groups): 6.4 to 12.1 h
half-life ([1]; both sexes, Week 39, with one exception, read-out: Apparent t 1/2 for the individual monkeys): 5.3 to 18.3 h
elimination of obicetrapib from plasma ([1]; end of 13‐week treatment‐free period, 50 mg/kg/day, both males and one female): complete
obicetrapib detected in plasma, % of the observed maximum concentration ([1]; end of 13‐week treatment‐free period, 50 mg/kg/day, one recovery female): 0.25%
time within which the mean C max was achieved ([1]; end of treatment, all of the monkeys, 3 h after the second dose): ≤ 9 h
t max ([1]; female, 10 mg/kg/day, Day 1, 10 mg/kg/d, females, mean (SD)): 5.9 h
half-life ([1]; female, 10 mg/kg/day, Day 1, 10 mg/kg/d, females, mean (SD), read-out: t ½ (elimination half‐life) (converted)): 7.2 h
Cmax ([1]; female, 10 mg/kg/day, Day 273 (Week 39), 10 mg/kg/d, females): 3390 ng/mL
t max ([1]; female, 10 mg/kg/day, Day 273 (Week 39), 10 mg/kg/d, females, mean (SD)): 4.8 h
half-life ([1]; female, 10 mg/kg/day, Day 273 (Week 39), 10 mg/kg/d, females, mean (SD), read-out: t ½ (elimination half‐life) (converted)): 12.1 h
Cmax [1, 3]: 3300 ng/mL
AUC(0-t) [1, 3]: 29800 ng·h/mL
t max ([1]; female, 20 mg/kg/day, Day 1, 20 mg/kg/d, females, mean (SD)): 4.8 h
half-life ([1]; female, 20 mg/kg/day, Day 1, 20 mg/kg/d, females, mean (SD), read-out: t ½ (elimination half‐life) (converted)): 5.8 h
Cmax ([1]; female, 20 mg/kg/day, Day 273 (Week 39), 20 mg/kg/d, females): 5160 ng/mL
t max ([1]; female, 20 mg/kg/day, Day 273 (Week 39), 20 mg/kg/d, females, mean (SD)): 4.8 h
half-life ([1]; female, 20 mg/kg/day, Day 273 (Week 39), 20 mg/kg/d, females, mean (SD), read-out: t ½ (elimination half‐life) (converted)): 8.8 h
Cmax [1, 4]: 4980 ng/mL
AUC(0-t) [1, 4]: 47800 ng·h/mL
half-life ([1]; female, 50 mg/kg/day, 50 mg/kg/day group, female with detectable concentrations 13 weeks after the last dose, read-out: t ½ of one outlier female (converted)): 516 h
t max ([1]; female, 50 mg/kg/day, Day 1, 50 mg/kg/d, females, mean (SD)): 6.2 h
half-life ([1]; female, 50 mg/kg/day, Day 1, 50 mg/kg/d, females, mean (SD), read-out: t ½ (elimination half‐life) (converted)): 6.8 h
Cmax ([1]; female, 50 mg/kg/day, Day 273 (Week 39), 50 mg/kg/d, females): 8480 ng/mL
t max ([1]; female, 50 mg/kg/day, Day 273 (Week 39), 50 mg/kg/d, females, mean (SD)): 6.6 h
half-life ([1]; female, 50 mg/kg/day, Day 273 (Week 39), 50 mg/kg/d, females, mean (SD), does not include data from one outlier, read-out: t ½ (elimination half‐life) (converted)): 7.4 h
half-life ([1]; female, 50 mg/kg/day, females in the high dose group (50 mg/kg/day), Week 39, read-out: mean t 1/2 including the outlier (converted)): 109 h
Cmax [1, 5]: 11600 ng/mL
AUC(0-t) [1, 5]: 118000 ng·h/mL
t max ([1]; male, 10 mg/kg/day, Day 1, 10 mg/kg/d, males, mean (SD)): 5 h
half-life ([1]; male, 10 mg/kg/day, Day 1, 10 mg/kg/d, males, mean (SD), read-out: t ½ (elimination half‐life) (converted)): 6.8 h
Cmax ([1]; male, 10 mg/kg/day, Day 273 (Week 39), 10 mg/kg/d, males): 3800 ng/mL
t max ([1]; male, 10 mg/kg/day, Day 273 (Week 39), 10 mg/kg/d, males, mean (SD)): 2 h
half-life ([1]; male, 10 mg/kg/day, Day 273 (Week 39), 10 mg/kg/d, males, mean (SD), read-out: t ½ (elimination half‐life) (converted)): 11 h
Cmax [1, 6]: 2800 ng/mL
AUC(0-t) [1, 6]: 29300 ng·h/mL
t max ([1]; male, 20 mg/kg/day, Day 1, 20 mg/kg/d, males, mean (SD)): 2.5 h
half-life ([1]; male, 20 mg/kg/day, Day 1, 20 mg/kg/d, males, mean (SD), read-out: t ½ (elimination half‐life) (converted)): 6.9 h
Cmax ([1]; male, 20 mg/kg/day, Day 273 (Week 39), 20 mg/kg/d, males): 6410 ng/mL
t max ([1]; male, 20 mg/kg/day, Day 273 (Week 39), 20 mg/kg/d, males, mean (SD)): 2.3 h
half-life ([1]; male, 20 mg/kg/day, Day 273 (Week 39), 20 mg/kg/d, males, mean (SD), read-out: t ½ (elimination half‐life) (converted)): 8.1 h
Cmax [1, 7]: 4740 ng/mL
AUC(0-t) [1, 7]: 46600 ng·h/mL
t max ([1]; male, 50 mg/kg/day, Day 1, 50 mg/kg/d, males, mean (SD)): 7.6 h
half-life ([1]; male, 50 mg/kg/day, Day 1, 50 mg/kg/d, males, mean (SD), read-out: t ½ (elimination half‐life) (converted)): 6.8 h
Cmax ([1]; male, 50 mg/kg/day, Day 273 (Week 39), 50 mg/kg/d, males): 9210 ng/mL
t max ([1]; male, 50 mg/kg/day, Day 273 (Week 39), 50 mg/kg/d, males, mean (SD)): 8.5 h
half-life ([1]; male, 50 mg/kg/day, Day 273 (Week 39), 50 mg/kg/d, males, mean (SD), read-out: t ½ (elimination half‐life) (converted)): 6.4 h
Cmax [1, 8]: 9600 ng/mL
AUC(0-t) [1, 8]: 118000 ng·h/mL
mean body weights ([1]; recovery period, monkeys treated at 50 mg/kg/day (25 mg/kg/b.i.d.)): comparable with the control monkeys
Group mean body weights ([1]; treated monkeys, dosing period): comparable with the control monkeys
cLogDpH7.4 [2]: 4.9

From article PMC11489133, “Obicetrapib exhibits favorable physiochemical and pharmacokinetic properties compared to previous cholesteryl ester transfer protein inhibitors: An integrated summary of results from non‐human primate studies and clinical trials” (Pharmacology Research & Perspectives, 2024)
